Values of other authors in patent US6641838B2, “Effervescent drug delivery system for oral administration” (Cima Labs Inc., priority 1998, dated 2003).
Like-named read-outs stand apart in the source and are kept apart here.

[1] = orally administered drug, conventional dosage forms, examples of drugs with poor bioavailability

## Cc1cc2nc3c(=O)[nH]c(=O)nc-3n(C[C@H](O)[C@H](O)[C@H](O)CO)c2cc1C [Riboflavin]
[1]
  Bioavailability (%): 11%

## CN(C)CCC=C1c2ccccc2COc2ccccc21 [Doxepin]
[1]
  Bioavailability (%): 27 ± 10%

## Nc1nc2c(ncn2COCCO)c(=O)[nH]1 [Acyclovir]
[1]
  Bioavailability (%): 15 − 30%

## CC[N+](C)(C)Cc1ccccc1Br [Bretylium]
[1]
  Bioavailability (%): 23 ± 9%

## Sc1ncnc2nc[nH]c12 [Mercaptopurine]
[1]
  Bioavailability (%): 12 ± 7%

## CC(=O)OC[C@H]1O[C@@H]([S-])[C@H](OC(C)=O)[C@@H](OC(C)=O)[C@@H]1OC(C)=O.CCP(CC)CC.[Au+] [Auranofin]
[1]
  Bioavailability (%): 15 − 25%

## Oc1ccc2c3c1O[C@H]1[C@@H](O)CC[C@@]4(O)[C@@H](C2)N(CC2CCC2)CC[C@]314 [Nalbuphine]
In vivo, po
  Bioavailability (%): 25 ± 16%
  average bioavailability: approximately 17%
  range of bioavailability (inter- and intrasubject variability): 6-40%

## CC(CCc1ccccc1)NCC(O)c1ccc(O)c(C(N)=O)c1 (stereo not shown) [Labetalol]
[1]
  Bioavailability (%): 18 ± 5%

## CN(C)C(=O)Oc1ccc[n+](C)c1 [Pyridostigmine]
In vivo, po
  Bioavailability (%): 14 ± 3%

## Nc1ccn([C@@H]2O[C@H](CO)[C@@H](O)[C@@H]2O)c(=O)n1 [Cytarabine]
[1]
  Bioavailability (%): 20%

## Methyldopa
In vivo, po
  Bioavailability (%): 25 ± 16%
  average bioavailability: 25%

## NNc1nncc2ccccc12 [Hydralazine]
[1]
  Bioavailability (%): 16 − 35%

## CC(C)(C)NCC(O)c1cc(O)cc(O)c1 (stereo not shown) [Terbutaline]
[1]
  Bioavailability (%): 14 ± 2%

## C=CCN1CC[C@]23c4c5ccc(O)c4O[C@H]2C(=O)CC[C@@]3(O)[C@H]1C5 [Naloxone]
[1]
  Bioavailability (%): 2%

## CNC1(c2ccccc2Cl)CCCCC1=O (stereo not shown) [Ketamine]
In vivo, po
  Bioavailability (%): 20 ± 7%

## CC(=O)CCCCn1c(=O)c2c(ncn2C)n(C)c1=O [Pentoxifylline]
[1]
  Bioavailability (%): 19 ± 13%
